# Data from patent US20250052744A1, “Dyes and Uses Thereof” (The University of Liverpool, priority 2021, published 2025).
# “Also recorded” adds a separate entry of the source.
# Columns and labels:
# [1] = tested on: Pseudomonas aeruginosa; test: Qualitative dye staining on agarose pads (EVOS M7000); assay type: cell-based; design: key to Relative fluorescent intensity: Very high: If the cells looked twice as big in the fluorescent channel, it was marked as having “very high” relative fluorescent intensity; High: if the cells looked bigger in the fluorescent channel, it was marked as having “high” relative fluorescent intensity; Medium: If the cells looked almost the same size in the fluorescent channel and the bright field, it was marked as having “medium” relative fluorescent intensity; Low: If the cells looked smaller in the fluorescent channel as compared to the brightfield but still the whole cell was visible, it was marked as having “low” relative fluorescent intensity; Negligible: If only a few traces of a cell was visible in the fluorescent channel, it was marked as having “negligible” relative fluorescent intensity; conditions: DiSC3(5) 3 μM, SYBR Green I 10×, SYTO 13 3 μM, FM4-64 15 μM
# [2] = tested on: Staphylococcus aureus; test: as above; assay type: cell-based; design: key to Relative fluorescent intensity: Very high: If the cells looked twice as big in the fluorescent channel, it was marked as having “very high” relative fluorescent intensity; High: if the cells looked bigger in the fluorescent channel, it was marked as having “high” relative fluorescent intensity; Medium: If the cells looked almost the same size in the fluorescent channel and the bright field, it was marked as having “medium” relative fluorescent intensity; Low: If the cells looked smaller in the fluorescent channel as compared to the brightfield but still the whole cell was visible, it was marked as having “low” relative fluorescent intensity; Negligible: If only a few traces of a cell was visible in the fluorescent channel, it was marked as having “negligible” relative fluorescent intensity; conditions: DiSC3(5) 3 μM, SYBR Green I 10×, SYTO 13 3 μM, FM4-64 15 μM
# [3] = Table 6 thresholds, Pseudomonas aeruginosa
# [4] = Table 7 commercial strain Pseudomonas aeruginosa NCTC 10332
# [5] = Table 7 commercial strain Pseudomonas aeruginosa NCTC 13715
# [6] = Table 8 sample Pseudomonas aeruginosa (031)
# [7] = Table 8 sample Pseudomonas aeruginosa (032)
# [8] = Table 8 sample Pseudomonas aeruginosa (033)
# [9] = Table 6 thresholds, Staphylococcus aureus
# [10] = Table 7 commercial strain S. Aureus NCTC 9369
# [11] = Table 7 commercial strain S. aureus NCTC 8532
# [12] = Table 8 sample Staphylococcus aureus (041)
# [13] = Table 8 sample Staphylococcus aureus (042)
# [14] = Table 8 sample Staphylococcus aureus (043)
SMILES,"Percentage of cells stained [1, 3]","Relative fluorescent intensity [1, 3]","Percentage of cells stained [1, 4]","Relative fluorescent intensity [1, 4]","Percentage of cells stained [1, 5]","Relative fluorescent intensity [1, 5]","Percentage of cells stained [1, 6]","Relative fluorescent intensity [1, 6]","Percentage of cells stained [1, 7]","Relative fluorescent intensity [1, 7]","Percentage of cells stained [1, 8]","Relative fluorescent intensity [1, 8]","Percentage of cells stained [2, 9]","Relative fluorescent intensity [2, 9]","Percentage of cells stained [2, 10]","Relative fluorescent intensity [2, 10]","Percentage of cells stained [2, 11]","Relative fluorescent intensity [2, 11]","Percentage of cells stained [2, 12]","Relative fluorescent intensity [2, 12]",further results
"CCCN1C(=CC=CC=Cc2sc3ccccc3[n+]2CCC)Sc2ccccc21.[I-] [DiSC3(5), 3,3′-Dipropylthiadicarbocyanine Iodide]",Few,no or negligible staining; also recorded: Negligible,Few,Negligible,Few,Negligible,Few,Negligible,Few,Negligible,Few,Negligible,Almost all,high and High,Almost all,High,Almost all,High,Almost all,High,"Percentage of cells stained [2, 13]: Almost all; Relative fluorescent intensity [2, 13]: High; Percentage of cells stained [2, 14]: Almost all; Relative fluorescent intensity [2, 14]: High"
"CCN(CC)c1ccc(C=CC=CC=Cc2cc[n+](CCC[N+](CC)(CC)CC)cc2)cc1.[Br-].[Br-] [FM 4-64, N-(3-Triethylammoniumpropyl)-4-(6-(4-(Diethylamino) Phenyl) Hexatrienyl) Pyridinium Dibromide]",Almost all,Low,Almost all,Negligible,Almost all,Low,Almost all,Low,Almost all,Low,Almost all,Low,Almost all,Medium-high,Almost all,High,Almost all,Medium,Almost all,High,"Percentage of cells stained [2, 13]: Almost all; Relative fluorescent intensity [2, 13]: Medium; Percentage of cells stained [2, 14]: Almost all; Relative fluorescent intensity [2, 14]: Medium"
"CCCN(CCCN(C)C)c1cc(/C=C2/Sc3ccccc3N2C)c2ccccc2[n+]1-c1ccccc1 [SYBR Green I, N′,N′-dimethyl-N-[4-[(E)-(3-methyl-1,3-benzothiazol-2-ylidene)methyl]-1-phenylquinolin-1-ium-2-yl]-N-propylpropane-1,3-diamine]",Almost all,Low,Almost all,Low,Almost all,Low,Almost all,Low,Almost all,Low,Almost all,Low,Almost all,high,Almost all,High,Almost all,High,Almost all,High,"Relative fluorescent intensity ([2]; Table 6 thresholds, Staphylococcus aureus, listed as SYBR Green): High; Percentage of cells stained [2, 13]: Almost all; Relative fluorescent intensity [2, 13]: High; Percentage of cells stained [2, 14]: Almost all; Relative fluorescent intensity [2, 14]: High"
